Measured values taken from patent EP2926811A1, “ARTEMETHER-CONTAINING PHARMACEUTICAL COMPOSITION, PREPARATION, AND USE THEREOF” (Kunming Pharmaceutical Corp., priority 2012, dated 2014).
Like-named read-outs stand apart in the source and are kept apart here.

How the values were obtained:
Format in all cases: cell-based
K562 cells = assay: modified MTT method, proliferation of K562 cells; conditions: Homo sapiens, read-out: IC50 on the growth of K562 cells
Method: (§1) Five test concentrations 2, 10, 50, 250 and 500 µM were set for each of five derivatives of artemisinin, artemether drug substance, artemisinin, dihydroartemisinin, artesunate were dissolved with dimethyl sulfoxide (DMSO), while the lyophilized powder of artemether was dissolved with normal saline (N.S.), followed by addition of a certain amount of RPMI 1640 complete culture solution to formulate a high-concentration solution, and each of the low-concentration solutions was formulated by proportionate dilution from the high-concentration solution.
(§2) The concentrations of DMSO contained in the solutions at the two relatively high concentrations 500 and 250 µM for the artemether drug substance, artemisinin, dihydroartemisinin, artesunate, used as solvent controls, were formulated with […] culture solution, at which time the test concentrations of DMSO were 1% and 0.5%. The concentrations of the excipients contained in the solutions at the two relatively high concentrations 500 and 250 µM for the preparation of lyophilized powder of artemether were used as solvent controls.
(§3) The positive control was an anti-cancer drug adriamycin (ADM), which was set at three test concentrations (final concentrations) of 0.1, 1 and 10 µg/ml. To ADM stock solution (1 mg/ml) a certain amount of PRMI 1640 complete culture solution was added, to formulate a high-concentration solution, and each of the low-concentration solutions were formulated by proportionate dilutions from the high-concentration solution.
(§4) HL-60: (human promyelocytic leukemia cell line); K562 (human chronic myelocytic leukemia cell line); HT-29 (human colon cancer cell line); PC-3 (human prostate cancer cell line); A549 (human non-small cell lung cancer cell line); MKN-28 (human gastric cancer cell line); Hep2 (human laryngeal cancer cell line), all of which were purchased from Cell Bank of Shanghai Institutes for Biological Sciences, the Chinese Academy of Sciences.
(§5) Influence of the five test samples on the proliferation of 7 human tumor cell lines was determined via a modified MTT method.
(§6) Cells in logarithmic growth phase were taken, adjusted to a certain concentration and then added into a 96 well culture plate. After culture of adherent cells for a period until adherence, the test samples were added; and for suspension cells, the test samples were added after inoculation. 5 test concentrations 2, 10, 50, 250 and 500 µM were set, with 3 parallel wells for each concentration, 10 µl/well; the solvent controls were 0.5% and 1% of isovolumetric DMSO, and the positive controls was ADM at 3 concentrations 0.1, 1 and 10 µg/ml. The samples were loaded followed by culture for a period of time in an incubator at 37°C, 5% CO2, followed by addition of MTT (5 mg/ml) at 20 µl/well, and continued to be cultured for a period of time and added with a three-combined solution [10% SDS - 5% isobutanol - 0.012 mol/L HCl (W/V/V)]. After dissolving in uniformity, it was continued to be placed in the incubator at 37°C, 5% CO2 for a period of time, and the OD value of each well was determined under a wavelength of 570 nm with a microplate reader, according to which the results were calculated.
(§7) The cellular proliferation inhibition rate was calculated in accordance with the following equation: Inhibition rate (%) = (OD valuecontrol well-OD valuesample well)/OD valuecontrol well × 100% [formula]
(§8) When the inhibition rate of DMSO on cells was more than 15%, calculation was carried out using the following equation: Inhibition rate (%) = (OD valuesolvent group-OD valueadministered well)/OD valuesolvent group × 100% [formula]
(§9) The inhibition rate was calculated by using Microsoft Excel 2003, and median inhibitory concentration IC50 was calculated with a LOGIT method, which was used as an indicator for judging the inhibitory capability.

HT-29 cells = assay: modified MTT method, proliferation of HT-29 cells; conditions: Homo sapiens
Method: as §1, §2, §3, §4, §5, §6, §7, §8, §9
(§10) According to the results of preliminary screening, further experiments were adjusted such that more sensitive cell lines were screened out. […]

A549 cells = assay: modified MTT method, proliferation of A549 cells; conditions: Homo sapiens, read-out: IC50 on the growth of A549 cells
Method: as §1, §2, §3, §4, §5, §6, §7, §8, §9

7 human tumor cell lines = assay: modified MTT method, summary over the panel of human tumor cell lines; conditions: on HL-60, K562, MKN-28
Text: as §4, §5
Cells in logarithmic growth phase were taken, adjusted to a certain concentration and then added into a 96 well culture plate. After culture of adherent cells for a period until adherence, the test samples were added; and for suspension cells, the test samples were added after inoculation. […] After dissolving in uniformity, it was continued to be placed in the incubator at 37°C, 5% CO2 for a period of time, and the OD value of each well was determined under a wavelength of 570 nm with a microplate reader, according to which the results were calculated.
as §9

Hep2 cells = assay: modified MTT method, proliferation of Hep2 cells; conditions: Homo sapiens, HEp-2, 72 h, secondary screening
Method: as §1, §2, §3, §4, §5, §6, §7, §8, §9, §10

MKN-28 cells = assay: modified MTT method, proliferation of MKN-28 cells; conditions: Homo sapiens, MKN-28, 72 h, secondary screening
Method: as §1, §2, §3, §4, §5, §6, §7, §8, §9, §10

PC-3 cells = assay: modified MTT method, proliferation of PC-3 cells; conditions: Homo sapiens, read-out: IC50 on the growth of PC-3 cells
Method: as §1, §2, §3, §4, §5, §6, §7, §8, §9

HL-60 cells = assay: modified MTT method, proliferation of HL-60 cells; conditions: Homo sapiens, read-out: IC50 on the growth of HL-60 cells
Method: as §1, §2, §3, §4, §5, §6, §7, §8, §9

C[C@H]1[C@H](OC(=O)CCC(=O)O)O[C@@H]2O[C@@]3(C)CC[C@H]4[C@H](C)CC[C@@H]1[C@@]24OO3 [artesunate]
IC50 (K562 cells; K562, 24 h, Batch 1, 24 h): > 1000 µM
IC50 (K562 cells; K562, 24 h, Batch 2, 24 h): > 1000 µM
IC50 (K562 cells; K562, 24 h, Batch 3, 24 h): 494 µM
IC50 (K562 cells; K562, 48 h, Batch 1, 48 h): 322 µM
IC50 (K562 cells; K562, 48 h, Batch 2, 48 h): > 1000 µM
IC50 (K562 cells; K562, 48 h, Batch 3, 48 h): 141 µM
IC50 (K562 cells; K562, 72 h, Batch 1, 72 h): 39.3 µM
IC50 (K562 cells; K562, 72 h, Batch 2, 72 h): > 1000 µM
IC50 (K562 cells; K562, 72 h, Batch 3, 72 h): 90.1 µM
IC50 (HT-29 cells; HT-29, 24 h, preliminary screening, Batch 1, 24 h, read-out: IC50 on the growth of HT-29 cells): > 1000 µM
IC50 (HT-29 cells; HT-29, 24 h, preliminary screening, Batch 2, 24 h, read-out: IC50 on the growth of HT-29 cells): 323 µM
IC50 (HT-29 cells; HT-29, 48 h, preliminary screening, Batch 1, 48 h, read-out: IC50 on the growth of HT-29 cells): > 1000 µM
IC50 (HT-29 cells; HT-29, 48 h, preliminary screening, Batch 2, 48 h, read-out: IC50 on the growth of HT-29 cells): > 1000 µM
IC50 (HT-29 cells; HT-29, 72 h, preliminary screening, Batch 1, 72 h, read-out: IC50 on the growth of HT-29 cells): > 1000 µM
IC50 (HT-29 cells; HT-29, 72 h, preliminary screening, Batch 2, 72 h, read-out: IC50 on the growth of HT-29 cells): 438 µM
IC50 (HT-29 cells; HT-29, 72 h, secondary screening, 72 h, Batch 1, read-out: IC50 on the growth of HT-29 cells (72 h)): 328 µM
IC50 (HT-29 cells; HT-29, 72 h, secondary screening, 72 h, Batch 2, read-out: IC50 on the growth of HT-29 cells (72 h)): 306 µM
IC50 (HT-29 cells; HT-29, 72 h, secondary screening, 72 h, Batch 3, read-out: IC50 on the growth of HT-29 cells (72 h)): 200 µM
IC50 (HT-29 cells; HT-29, 72 h, secondary screening, 72 h, average, read-out: IC50 on the growth of HT-29 cells (72 h)): 225 µM
IC50 (A549 cells; A549, 24 h, Batch 1, 24 h): > 1000 µM
IC50 (A549 cells; A549, 24 h, Batch 2, 24 h): > 1000 µM
IC50 (A549 cells; A549, 48 h, Batch 1, 48 h): > 1000 µM
IC50 (A549 cells; A549, 48 h, Batch 2, 48 h): 272 µM
IC50 (A549 cells; A549, 72 h, Batch 1, 72 h): > 1000 µM
IC50 (A549 cells; A549, 72 h, Batch 2, 72 h): 225 µM
inhibitory effect in vitro (7 human tumor cell lines): only shows inhibitory effect
IC50 (Hep2 cells; Batch 1, read-out: IC50 on the growth of Hep2 cells (72 h)): 119 µM
IC50 (Hep2 cells; Batch 2, read-out: IC50 on the growth of Hep2 cells (72 h)): 93.2 µM
IC50 (Hep2 cells; Batch 3, read-out: IC50 on the growth of Hep2 cells (72 h)): 212 µM
IC50 (Hep2 cells; average, read-out: IC50 on the growth of Hep2 cells (72 h)): 149 µM
IC50 (MKN-28 cells; Average, read-out: IC50 on the growth of MKN-28 cells (72 h)): 27.9 µM
IC50 (MKN-28 cells; Batch 1, read-out: IC50 on the growth of MKN-28 cells (72 h)): 35.3 µM
IC50 (MKN-28 cells; Batch 2, read-out: IC50 on the growth of MKN-28 cells (72 h)): 28.1 µM
IC50 (MKN-28 cells; Batch 3, read-out: IC50 on the growth of MKN-28 cells (72 h)): 21.4 µM
IC50 (PC-3 cells; PC-3, 24 h, Batch 1, 24 h): > 1000 µM
IC50 (PC-3 cells; PC-3, 24 h, Batch 2, 24 h): > 1000 µM
IC50 (PC-3 cells; PC-3, 48 h, Batch 1, 48 h): > 1000 µM
IC50 (PC-3 cells; PC-3, 48 h, Batch 2, 48 h): > 1000 µM
IC50 (PC-3 cells; PC-3, 72 h, Batch 1, 72 h): > 1000 µM
IC50 (PC-3 cells; PC-3, 72 h, Batch 2, 72 h): > 1000 µM
IC50 (HL-60 cells; HL-60, 24 h, Batch 1, 24 h): > 1000 µM
IC50 (HL-60 cells; HL-60, 24 h, Batch 2, 24 h): 269 µM
IC50 (HL-60 cells; HL-60, 48 h, Batch 1, 48 h): > 1000 µM
IC50 (HL-60 cells; HL-60, 48 h, Batch 2, 48 h): 39.5 µM
IC50 (HL-60 cells; HL-60, 72 h, Batch 1, 72 h): > 1000 µM
IC50 (HL-60 cells; HL-60, 72 h, Batch 2, 72 h): 145 µM
